Experimental data reported in patent US10365286B2, “Chromophoric structures for lanthanide chelates” (RADIOMETER TURKU OY, priority 2014, dated 2019).

Legend:
[1] = Luminescence measurements of Eu(III) chelates with the ligands; format: physicochemical; details: Eu(III) complex of the ligand; 10 mM NH3-HCl buffer, pH 8.3
Protocol: FC=Flash chromatography. RT=room temperature. Microwave synthesizer was Initiator system (Biotage). ^1H NMR and ^13C NMR spectra were recorded on a Bruker AVANCE 500 DRX (Bruker, Karlsruhe, Germany) by using SiMe4 as internal standard and chemical shifts δ are in ppm. Mass spectra were recoded on a Voyager DE Pro (Applied Biosystems, Foster City, Calif.) mass spectrometer. HPLC runs were performed by Dionex's Ultimate 3000 system including Dionex's Ultimate 3000 Diode Array Detector. The used column was ThermoHypersil 150×4 mm 5μ Hypersil® ODS. Used eluents were 100 mM TEAA and CH3CN. Runs were performed by using an eluent gradient starting from 75% H2O, 20% 100 mM TEAA and 5% CH3CN and within 30 min to 30% H2O, 20% TEAA and 50% CH3CN. For the HPLC, sample concentration was aprox. 1 mg of chelate in 1 ml water. The sampling volume was 20-25 μl. The instrumentation, measurement and calculation principles for the molar absorptivities (ε), excitation maxima (λexc), luminescence lifetimes (τ), quantum yields (Φ), and triplet stage energies (T) see e.g. Räsänen, M., et al., 2014, J. Luminescence, 146, 211-217.
The luminescence parameters for Eu(III) complexes with ligands 11, 12, 14, 27, 28, and 35 were measured in 10 mM NH3-HCl buffer, pH 8.3. The molar absorptivities (c), excitation maxima (λexc ), luminescence lifetimes (τ), quantum yields (Φ), calculated luminescence yields (ε×Φ) and triplet stage (T) are presented in Table 1.

cTnI = experiment: Model cTnI immunoassay with chelate-labelled detection antibodies; details: for Abs max: antibody labelled with the chelate
Protocol: Labeling was performed in 10 mM botate buffer, pH 8.6-9.0 using 30-fold molar excess of chelates. Reactions were normally carried out overnight at +4° C. or at room temperature. Labeled antibodies were purified on Superfex 200 HR 10/30 or Superdex 200 HiLoad 26/60 gel filtration columns using Tris-saline-azide […], 9.0 g/L NaCl, and 0.5 g/L NaN3), pH 7.75 as an elution buffer. The fractions containing the antibody were pooled and the europium concentrations measured against europium calibrator. The purified antibody comjugate and the labeling ratio (i.e. chelates per protein) were quantified by calculating the protein yield or by measureing the absorbance at 280 nm and subtracting the absorption caused by the added chelate.
An earlier published nine dentate label {2,2′,2″,2′″-{[2-(4-isothiocyanato-phenyl)ethylimino]bis(methylene)bis{4-{[4-(α-galactopyranoxy)phenyl]ethynyl}-pyridine-bis(methylenenitrilo)}tetrakis(acetato)}europium(III) (von Loden, P., et al., 2003, Anal. Chem. 75, 3193) was used as a reference label.
Two labels 49 and 54 were tested in a model cTnl assay. The cTnl immunoassays were performed by using biotinylated capture cTnl antibodies together with the labelled cTnl detection antibodies described above and according to the main principles described in published method (von Loden, P., et al., 2003, Anal. Chem. 75, 3193). The combined assay/wash buffer contained 5 mmol HEPES, 2.1 g/L NaCl, 0.1 mmol EDTA, 0.055 g/L Tween 20 and 1 g/L Gernall II, pH 7.75. The capture biotinylated antibodies were pre-incubated in assay wells. The standards followed by the detection label antibody diluted in 20 μl and 10 μl assay buffer, respectively, were applied to the wells. After one hour incubation at 36 C, the wells were washed, dried and measured.

[2] = Photo-physical properties of chelates conjugated to taurine; format: physicochemical; details: 50 mM TRIS buffer (pH 7.75)
Protocol: The prepared isothiocyante activated chelates (65 and 79) were conjugated to taurine as described above in Example 68. The products were purified with semi-preparative reversed phase HPLC (RP-18 column). After the product fractions were evaporated the residues were dissolved in 50 mM TRIS buffer.
The measured photo-physical properties excitation wavelengths (λexc), luminescence decay times (τ), molar absorptivities (ε), estimated luminescence yields (εΦ) of the novel chelates (66 and 80) in 50 mM TRIS buffer (pH 7.75) are in the Table 3. The nine dentate label {2,2′,2″,2′″-{[2-(4-isothiocyanato-phenyl)ethylimino]bis(methylene)bis{4-{[4-(α-galactopyranoxy)phenyl]-ethynyl}bis(methylenenitrilo)}tetrakis(acetato)}-europium(III) (von Loden, P., et al., 2003, Anal. Chem. 75, 3193) was used as a reference label.

[3] = Photo-physical properties of cTnI antibodies labelled with chelate; format: physicochemical
Protocol: The Tnl labeled antibodies were prepared as described in Example 61.
The measured photo-physical properties gave the excitation wavelengths (λexc)at 354 nm, a luminescence decay times (τ) of 460 μs molar absorptivities (c) of 142 000 cm^−1M^−1 and luminescence yields (εΦ) of 10 500 cm^−1M^− for the labelled cTnls with the chelate 66 in 50 mM TRIS buffer (pH 7.75)
Dry measurements gave the luminescence yield of 16 500 cm^−1M^−1, which represents estimated luminescence yields based on the signal measurements after dry immunoassay done as described in the Example 61.

[4] = labelled cTnI antibodies, 50 mM TRIS buffer (pH 7.75)

SMILES: O=C(O)CN(CC(=O)O)Cc1cc(-c2ccc3c(c2)Cc2ccccc2-3)cc(CN(CC(=O)O)CC(=O)O)n1 [Compound 11]
- calculated luminescence yield ε × Φ [1]: 4 800 cm^−1M^−1
- excitation maximum λexc [1]: 323 nm
- luminescence lifetime τ [1]: 380 μs
- molar absorptivity ε [1]: 104 000 cm^−1M^−1
- quantum yield Φ [1]: 0.046
- triplet stage T [1]: 20 000 cm^−1

SMILES: O=C(O)CN(CC(=O)O)Cc1cc(-c2ccc3c(c2)C(CC(=O)O)(CC(=O)O)c2ccccc2-3)cc(CN(CC(=O)O)CC(=O)O)n1 [Compound 12]
- calculated luminescence yield ε × Φ [1]: 3 500 cm^−1M^−1
- excitation maximum λexc [1]: 328 nm
- luminescence lifetime τ [1]: 390 μs
- molar absorptivity ε [1]: 35 000 cm^−1M^−1
- quantum yield Φ [1]: 0.10
- triplet stage T [1]: 20 100 cm^−1

SMILES: O=C(O)CN(CC(=O)O)Cc1cc(C#Cc2ccc3c(c2)C(CC(=O)O)(CC(=O)O)c2ccccc2-3)cc(CN(CC(=O)O)CC(=O)O)n1 [Compound 14]
- calculated luminescence yield ε × Φ [1]: 4 200 cm^−1M^−1
- excitation maximum λexc [1]: 342 nm
- luminescence lifetime τ [1]: 355 μs
- molar absorptivity ε [1]: 38 200 cm^−1M^−1
- quantum yield Φ [1]: 0.11
- triplet stage T [1]: 19 200 cm^−1

SMILES: O=C([O-])CN(CC(=O)[O-])Cc1cc(C#Cc2ccc3c(c2)C(CC(=O)[O-])(CC(=O)[O-])c2ccccc2-3)cc(CN(CCc2ccc(N=C=S)cc2)Cc2cc(C#Cc3ccc4c(c3)C(CC(=O)[O-])(CC(=O)[O-])c3ccccc3-4)cc(CN(CC(=O)[O-])CC(=O)[O-])n2)n1.[Eu+3].[Na+].[Na+].[Na+].[Na+].[Na+] [Compound 49]
- Abs max (cTnI; First test): 348 nm
- excitation after coupled in protein (cTnI; label coupled to protein, broad excitation): around 350 nm

SMILES: O=C([O-])CN(CC(=O)[O-])Cc1cc(-c2ccc3c(c2)C(CC(=O)[O-])(CC(=O)[O-])c2ccccc2-3)cc(CN(CCc2ccc(N=C=S)cc2)Cc2cc(-c3ccc4c(c3)C(CC(=O)[O-])(CC(=O)[O-])c3ccccc3-4)cc(CN(CC(=O)[O-])CC(=O)[O-])n2)n1.[Eu+3].[Na+].[Na+].[Na+].[Na+].[Na+] [Compound 54]
- Abs max (cTnI; Second test): 327 nm

SMILES: O=C([O-])COc1cc(NC(=S)NCCS(=O)(=O)[O-])ccc1C#Cc1cc(CN(CC(=O)[O-])Cc2cc(C#Cc3ccc4c(c3)C(CC(=O)[O-])(CC(=O)[O-])c3ccccc3-4)cc(C(=O)[O-])n2)nc(CN(CC(=O)[O-])Cc2cc(C#Cc3ccc4c(c3)C(CC(=O)[O-])(CC(=O)[O-])c3ccccc3-4)cc(C(=O)[O-])n2)c1.[Eu+3].[Na+].[Na+].[Na+].[Na+].[Na+].[Na+].[Na+] [Compound 66]
- estimated luminescence yield ε x Φ [2]: 8 700 cm^−1M^−1
- excitation wavelength λexc [2]: 346 nm
- luminescence decay time τ [2]: 540 μs
- molar absorptivity ε [2]: 100 000 cm^−1M^−1
- luminescence yield, dry measurements ([3]; estimated from signal measurements after dry immunoassay): 16 500 cm^−1M^−1
- excitation wavelength λexc [3, 4]: 354 nm
- luminescence decay time τ [3, 4]: 460 μs
- luminescence yield εΦ [3, 4]: 10 500 cm^−1M^−
- molar absorptivity [3, 4]: 142 000 cm^−1M^−1

SMILES: O=C([O-])COc1cc(OCC(=O)[O-])c(C#Cc2cc(CN(CC(=O)[O-])Cc3cc(C#Cc4ccc5c(c4)C(CC(=O)[O-])(CC(=O)[O-])c4cc(NC(=S)NCCS(=O)(=O)[O-])ccc4-5)cc(CN(CC(=O)[O-])Cc4cc(C#Cc5c(OCC(=O)[O-])cc(OCC(=O)[O-])cc5OCC(=O)[O-])cc(C(=O)[O-])n4)n3)nc(C(=O)[O-])c2)c(OCC(=O)[O-])c1.[Eu+3].[Na+].[Na+].[Na+].[Na+].[Na+].[Na+].[Na+].[Na+].[Na+].[Na+] [Compound 80]
- estimated luminescence yield ε x Φ [2]: 5 600 cm^−1M^−1
- excitation wavelength λexc [2]: 354 nm
- luminescence decay time τ [2]: 290 μs
- molar absorptivity ε [2]: 105 000 cm^−1M^−1

SMILES: O=C(O)CN(CC(=O)O)Cc1cc(C#Cc2ccccc2)cc(CN(CC(=O)O)CC(=O)O)n1 [Ref ligand, 2,2′,2″,2′″-[(4-phenylethynylpyridine-2,6-diyl)bis(methylenenitrilo)]tetrakis-(acetic acid), reference compound]
- calculated luminescence yield ε × Φ [1]: 1 800 cm^−1M^−1
- excitation maximum λexc [1]: 293 nm
- luminescence lifetime τ [1]: 385 μs
- molar absorptivity ε [1]: 26 950 cm^−1M^−1
- quantum yield Φ [1]: 0.067
- triplet stage T [1]: 21 600 cm^−1
